Laboratory results reported in ChEMBL document CHEMBL1133752, “Synthesis and antiviral evaluation of trisubstituted indole N-nucleosides as analogues of 2,5,6-trichloro-1-(beta-D-ribofuranosyl)benzimidazole (TCRB)” (J Med Chem, 2000).

Experiments:
HFF [1] = assay: Visual cytotoxicity was scored on HFF cells at time of HCMV plaque enumeration; assay type: functional, cell-based; conditions: Homo sapiens
[2] = Inhibition of KB cell growth was determined.; assay type: functional, cell-based; conditions: Homo sapiens
HFF [3] = assay: Antiviral activity against HCMV was determined by plaque reduction assay using HFF cells; assay type: functional, cell-based; conditions: Homo sapiens
[4] = ELISA assay was performed using BSC-1 cells to determine activity against HSV-1; assay type: functional, cell-based, Cercopithecidae
HFF [5] = assay: Antiviral activity against HCMV was determined by yield reduction assay using HFF cells; assay type: functional; conditions: Homo sapiens

| Compound | IC50 (HFF [1]) [µM] | IC50 [2] [µM] | IC50 (HFF [3]) [µM] | IC50 [4] [µM] | IC90 (HFF [5]) [µM] |
| --- | --- | --- | --- | --- | --- |
| Clc1cc2cc(Br)[nH]c2cc1Cl | 32 | 70 | 14 | 70 |  |
| O=C(O)P(=O)(O)O [FOSCARNET] | > 100 |  | 39 |  |  |
| OC[C@H]1OC(n2c(Br)cc3cc(Cl)c(Cl)cc32)[C@H](O)[C@@H]1O (some centres not stated) | 100 | > 100 | 18 | > 100 | 42 |
| OC[C@H]1O[C@@H](n2c(Cl)nc3cc(Cl)c(Cl)cc32)[C@H](O)[C@@H]1O |  | 210 |  | 102 | 1.4 |
| OC[C@H]1O[C@@H](n2c(SCc3ccccc3)cc3cc(Cl)c(Cl)cc32)CC1O (some centres not stated) | 32 | 60 | 32 | 40 |  |
| Nc1nc2c(ncn2COC(CO)CO)c(=O)[nH]1 [GANCICLOVIR] | > 100 | > 100 |  | 3.5 | 1.6 |
| OC[C@H]1OC(n2c(Cl)cc3cc(Cl)c(Cl)cc32)[C@H](O)[C@@H]1O (some centres not stated) | > 100 | > 100 | 42 | > 100 | 50 |
